In general, IC50 refers to the midpoint of a concentration-inhibition curve.

Molecules are shown by their SMILES.

For the first experiment, the target named is VIM-2 metallo β-lactamase (Pseudomonas aeruginosa, UniProt Q9K2N0). The experiment can be described thus: concentration-dependent VIM-2 enzyme inhibition – biochemical, epi-absorbance readout, selective inhibitors, dose response (AID 1919).
As to `O=C1C(=O)N(Cc2cccnc2)C(c2ccccn2)C1C(=O)c1ccc(F)cc1` (stereo not drawn) [(4Z)-4-[(4-fluorophenyl)-hydroxy-methylene]-5-(2-pyridyl)-1-(3-pyridylmethyl)pyrrolidine-2,3-quinone], the IC50 was found to be 2.42 µM.

In turn, `O=C1C(=O)N(Cc2cccnc2)C(c2ccccn2)C1C(=O)c1ccccc1` (stereo not drawn) [(4Z)-4-[hydroxy(phenyl)methylene]-5-(2-pyridyl)-1-(3-pyridylmethyl)pyrrolidine-2,3-quinone] showed an IC50 of 5 µM.

Turning to `COc1cc(OC)c(OC)cc1C=NNC(=O)Cc1c(C)[nH][nH]c1=O` [MLS000555854], the IC50 was 4.22 µM.

Consider `COc1ccc(OC)c(C=NNC(=O)Cc2c(C)[nH][nH]c2=O)c1` [SMR000147372], for which the half-inhibitory concentration (IC50) is 6.1 µM.

`COc1ccc(C(=O)C2C(=O)C(=O)N(Cc3ccco3)C2c2cc(OC)ccc2OC)cc1` (stereo not drawn) [(4E)-5-(2,5-dimethoxyphenyl)-1-(2-furanylmethyl)-4-[hydroxy-(4-methoxyphenyl)methylidene]pyrrolidine-2,3-dione] had a concentration for half-maximal inhibition (IC50) of 12.8 µM.

`O=C1C(=O)N(Cc2cccnc2)C(c2ccccn2)C1C(=O)c1cccs1` (stereo not drawn) [3-hydroxy-5-(2-pyridinyl)-1-(3-pyridinylmethyl)-4-(2-thienylcarbonyl)-1,5-dihydro-2H-pyrrol-2-one]: the IC50 is 13.2 µM.

`COc1ccc(OC)c(C2C(C(=O)c3ccco3)C(=O)C(=O)N2Cc2cccnc2)c1` (stereo not drawn) [2-(2,5-dimethoxyphenyl)-3-(furan-2-carbonyl)-4-hydroxy-1-(pyridin-3-ylmethyl)-2H-pyrrol-5-one] showed an IC50 of 1.94 µM.

For a further experiment, the target named is Beta-lactamase (Pseudomonas aeruginosa, UniProt Q932Y6). The description is as above.
Beta-lactamase, sequence (Q932Y6 whole entry): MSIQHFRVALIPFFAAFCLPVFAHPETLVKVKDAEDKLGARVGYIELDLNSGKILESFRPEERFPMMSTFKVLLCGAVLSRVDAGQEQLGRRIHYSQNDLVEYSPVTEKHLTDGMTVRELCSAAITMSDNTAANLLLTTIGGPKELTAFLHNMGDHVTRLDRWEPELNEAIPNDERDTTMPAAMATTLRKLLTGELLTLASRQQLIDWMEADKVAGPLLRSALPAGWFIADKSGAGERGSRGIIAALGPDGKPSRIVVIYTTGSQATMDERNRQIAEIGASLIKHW
Turning to `Cn1c(-c2sccc2OCc2ccc(Cl)cc2Cl)n[nH]c1=S`, the IC50 came out at 6.63 µM.

Values taken from BindingDB's records for doi:10.7270/Q2X63KBQ (The Scripps Research Institute Molecular Screening Center, 2009).
